Here are results for 16 compounds from US10995070B2, “Acetyl-CoA carboxylase modulators” (Monsanto Technology LLC, priority 2013, dated 2021).

Assay [1] addresses Ustilago maydis acetyl CoA carboxylase (ACCase) (Ustilago maydis, UniProt A0A0D1DYD5). The assay is described as follows: ACCase enzymatic assay (coupled PK/LDH, NADH OD340). Type of assay: biochemical. Particulars: read-out: ACCase Inhibitory Activity IC50. On the procedure: Ustilago maydis acetyl CoA carboxylase (ACCase) was cloned, expressed, and purified as described (Weatherly et al, Biochem. J., 2004) and the test compounds were tested in a 96-well plate format. Primary in vitro screening consisted of obtaining dose response data at 100, 33, 10, and 1 μM inhibitor. Actives in the primary screen were re-tested to establish IC50 values.
Direct detection of the conversion of acetyl CoA to malonyl CoA by ACCase was not feasible, but during this process ATP is converted to ADP which allowed for detection through a standard reaction coupling with ADP recycling to the oxidation of NADH. Thus, ACCase activity was measured via kinetic OD340 measurements of the conversion of NADH to NAD in a coupled reaction involving the conversion of phosphoenolpyruvate (PEP) to lactate.
The complete 200 ul reaction mixture contained 52.5 mM HEPES (pH8), 2.625 mM MgCl2, 1 mM ATP, 0.525 mM DTT, 11 mM NaHCO3, 1% DMSO with or without inhibitor, 1× pyruvate kinase/lactate dehydrogenase (PK/LDH), 0.3 mM NADH, 0.5 mM PEP, and 5 μg ACCase. The reactions were incubated at 30° C. for 10 minutes and then initiated by the addition of 0.33 mM acetyl CoA. The initiated reactions were read immediately via plate reader at OD340 and kinetic readings were acquired every 20 s for 15 minutes while keeping the temperature at 30° C.
A slope of the kinetic curve was determined by using the 2 to 7 minute data which was then calculated as percent inhibition relative to the no inhibitor control.
The primary screens were conducted in duplicate and the IC50's conducted in triplicate. Averages were reported along with standard deviation calculation to generate error bars.
Each plate contained its own controls and consisted of a DMSO only control, 5-fold titration series of soraphen from 2 μM to 3.2 nM, and an ADP coupled reaction control. […]
A slope of the kinetic curve was determined by using the 2 to 7 minute data which was then calculated as percent inhibition relative to the no inhibitor control. Those compounds which had no significant PK/LDH inhibition at or above the IC50 in the ACCase assay, were considered to be valid modulators of only ACCase.

For the next assay, the system named is Diplodia maydis. The assay is described as follows: Fungal growth inhibition assay, D. maydis. The following applies: 48 h. It is filed as cell-based. On the procedure:
(§1) Spores were isolated from previously sub-cultured plates of Botrytis cinerea, Phytophthora capsici, Fusarium moniliforme, Fusarium viguliforme, Collectotrichum graminicola, and Diplodia maydis. All spores were filtered and collected in a sterile glass bowl to isolate the spores from the mycelia. The isolation and sub-culture plate condition for each pathogen is described below.
Spore isolation for D. maydis: A 3-4 week old PDA (pre-mix) plate was removed from 26° C. incubator with a light/dark 12 hour cycle and the mycelia were treated with 6-7 ml of sterile distilled water, scraped into a sterile petri dish, and smashed to open the pycnidia. The spores were then collected in a sterile filter bowl containing a fluted piece of filter paper and poured into a conical tube.
(§2) After spore isolation, pathogen spores were counted on a hemocytometer to calculate the spores/ml. In 17% V8 liquid media containing 3 g/L CaCO3, isolated spores were diluted to individual concentrations based on the growth curves at 48 hours of each pathogen. The spore concentrations for each pathogen were as follows: B. cinerea—10,000 sp/ml; P. capsici—300 sp/ml; F. monliforme—500 sp/ml; F. virguliforme—500 sp/ml; C. graminicola—3,000 sp/ml; and D. maydis—3,000 sp/ml.
(§3) Chemistry stocks were dissolved in DMSO at 2.5 mg/ml. Chemistry was diluted in a 96-well stock plate in five-fold dilutions to obtain a final concentration of 50, 10, and 2 ppm in vitro. The final concentration of the positive control after the five-fold dilutions was as follows: soraphen—0.5, 0.1, and 0.02 ppm. Negative controls on each plate included 2% DMSO, water containing spores and media, and a blank for background subtraction.
(§4) In a 96-well plate the spore solution, chemistries, and controls were combined to make the final solution concentrations mentioned above. Upon addition of the chemistry, an OD600 reading was done to assess chemical precipitation. The 96-well plates were incubated in plastic tubs containing wet paper towels under the following conditions, 25° C. in the dark for P. capsici and B. cinerea or 26° C. with light/dark cycle for C. graminicola, D. maydis, F. virguliforme, F. monliforme. Plate readings were repeated at 24 and 48 hrs. Visual ratings were performed at 24 and 48 hrs to check for precipitation and confirm efficacy. Visual and OD600 ratings of the chemistry at 48 hours were compared to the 2% DMSO control to determine the percent of pathogen growth inhibition.

The test system of assay [2] is Collectotrichum graminicola. The experiment in a line: Fungal growth inhibition assay, C. graminicola. Particulars: Colletotrichum graminicola, 48 h. Type of assay: cell-based. The procedure:
as §1
Spore isolation for C. graminicola: A 1-2 week old oatmeal agar (pre-mix) plate was removed from 26° C. incubator with a light/dark 12 hour cycle and the mycelia were treated with 10-15 ml of filter sterilized distilled water. The mycelia were scraped to re-suspend the spores. The spores were then collected in a sterile filter bowl containing a piece of sterile cheesecloth and poured into a conical tube.
as §2, §3, §4

The test system of another assay is Fusarium virguliforme. The assay is described as follows: Fungal growth inhibition assay, F. virguliforme. Particulars: 48 h. Type of assay: cell-based. The procedure: as §1
Spore isolation for F. virguliforme: A 2-3 week old PDA (pre-mix) plate containing cefotaxime (100 mg/L) and kanamycin (50 mg/L) was removed from 26° C. incubator with a light/dark 12 hour cycle and the mycelia were treated with 5-10 ml of filter sterilized distilled water. The mycelia were scraped to re-suspend the spores. The spores were then collected in a sterile filter bowl containing a fluted piece of filter paper and poured into a conical tube.
as §2, §3, §4

Another assay relates to Saccharomyces cerevisiae. The assay is described as follows: Yeast growth inhibition assay. Particulars: read-out: S. cerevisiae % growth inhibition. It is filed as cell-based. The procedure:
Yeast cells (Ade2 strain) were grown in liquid YPD (1% yeast extract, 2% peptone, 2% dextrose) for 16 hours at 30° C. from previously sub-cultured plates of Saccharomyces cerevisiae. The OD600 of the overnight culture was checked via spectrophotometer and diluted to a concentration of 2×10^4 cells/ml.
Chemistry stocks were dissolved in DMSO to a concentration of 10 mM. Chemistry stocks were further diluted in a 96-well stock plate to obtain final concentrations of […] in 1% DMSO. The final concentrations of the soraphen positive control were 400, 40, and 3.2 nM. The negative controls on each plate included a background subtraction control containing yeast and 1% DMSO (without chemistry) and a second contamination control containing YPD (with no yeast) and 1% DMSO (without chemistry).
98 μl liquid YPD was added to 2 μl diluted stock of DMSO per well and mixed thoroughly. After mixing, 100 μl of the diluted yeast solution was added to bring the final yeast concentration to 1×10^4 cells/ml or 2000 cells per well. An initial spectrophotometric reading at OD600 was conducted on the entire plate and served as the 0 hours time point used to subtract any background. […] […] […] All experiments were conducted in triplicate. Averages were reported along with standard deviation calculation to generate error bars. Each plate contained its own controls and consisted of inoculated+DMSO, non-inoculated+DMSO, and a titration series of soraphen at 400, 40, and 3.2 nM.

Sequence of Ustilago maydis acetyl CoA carboxylase (ACCase) (A0A0D1DYD5 1-2185): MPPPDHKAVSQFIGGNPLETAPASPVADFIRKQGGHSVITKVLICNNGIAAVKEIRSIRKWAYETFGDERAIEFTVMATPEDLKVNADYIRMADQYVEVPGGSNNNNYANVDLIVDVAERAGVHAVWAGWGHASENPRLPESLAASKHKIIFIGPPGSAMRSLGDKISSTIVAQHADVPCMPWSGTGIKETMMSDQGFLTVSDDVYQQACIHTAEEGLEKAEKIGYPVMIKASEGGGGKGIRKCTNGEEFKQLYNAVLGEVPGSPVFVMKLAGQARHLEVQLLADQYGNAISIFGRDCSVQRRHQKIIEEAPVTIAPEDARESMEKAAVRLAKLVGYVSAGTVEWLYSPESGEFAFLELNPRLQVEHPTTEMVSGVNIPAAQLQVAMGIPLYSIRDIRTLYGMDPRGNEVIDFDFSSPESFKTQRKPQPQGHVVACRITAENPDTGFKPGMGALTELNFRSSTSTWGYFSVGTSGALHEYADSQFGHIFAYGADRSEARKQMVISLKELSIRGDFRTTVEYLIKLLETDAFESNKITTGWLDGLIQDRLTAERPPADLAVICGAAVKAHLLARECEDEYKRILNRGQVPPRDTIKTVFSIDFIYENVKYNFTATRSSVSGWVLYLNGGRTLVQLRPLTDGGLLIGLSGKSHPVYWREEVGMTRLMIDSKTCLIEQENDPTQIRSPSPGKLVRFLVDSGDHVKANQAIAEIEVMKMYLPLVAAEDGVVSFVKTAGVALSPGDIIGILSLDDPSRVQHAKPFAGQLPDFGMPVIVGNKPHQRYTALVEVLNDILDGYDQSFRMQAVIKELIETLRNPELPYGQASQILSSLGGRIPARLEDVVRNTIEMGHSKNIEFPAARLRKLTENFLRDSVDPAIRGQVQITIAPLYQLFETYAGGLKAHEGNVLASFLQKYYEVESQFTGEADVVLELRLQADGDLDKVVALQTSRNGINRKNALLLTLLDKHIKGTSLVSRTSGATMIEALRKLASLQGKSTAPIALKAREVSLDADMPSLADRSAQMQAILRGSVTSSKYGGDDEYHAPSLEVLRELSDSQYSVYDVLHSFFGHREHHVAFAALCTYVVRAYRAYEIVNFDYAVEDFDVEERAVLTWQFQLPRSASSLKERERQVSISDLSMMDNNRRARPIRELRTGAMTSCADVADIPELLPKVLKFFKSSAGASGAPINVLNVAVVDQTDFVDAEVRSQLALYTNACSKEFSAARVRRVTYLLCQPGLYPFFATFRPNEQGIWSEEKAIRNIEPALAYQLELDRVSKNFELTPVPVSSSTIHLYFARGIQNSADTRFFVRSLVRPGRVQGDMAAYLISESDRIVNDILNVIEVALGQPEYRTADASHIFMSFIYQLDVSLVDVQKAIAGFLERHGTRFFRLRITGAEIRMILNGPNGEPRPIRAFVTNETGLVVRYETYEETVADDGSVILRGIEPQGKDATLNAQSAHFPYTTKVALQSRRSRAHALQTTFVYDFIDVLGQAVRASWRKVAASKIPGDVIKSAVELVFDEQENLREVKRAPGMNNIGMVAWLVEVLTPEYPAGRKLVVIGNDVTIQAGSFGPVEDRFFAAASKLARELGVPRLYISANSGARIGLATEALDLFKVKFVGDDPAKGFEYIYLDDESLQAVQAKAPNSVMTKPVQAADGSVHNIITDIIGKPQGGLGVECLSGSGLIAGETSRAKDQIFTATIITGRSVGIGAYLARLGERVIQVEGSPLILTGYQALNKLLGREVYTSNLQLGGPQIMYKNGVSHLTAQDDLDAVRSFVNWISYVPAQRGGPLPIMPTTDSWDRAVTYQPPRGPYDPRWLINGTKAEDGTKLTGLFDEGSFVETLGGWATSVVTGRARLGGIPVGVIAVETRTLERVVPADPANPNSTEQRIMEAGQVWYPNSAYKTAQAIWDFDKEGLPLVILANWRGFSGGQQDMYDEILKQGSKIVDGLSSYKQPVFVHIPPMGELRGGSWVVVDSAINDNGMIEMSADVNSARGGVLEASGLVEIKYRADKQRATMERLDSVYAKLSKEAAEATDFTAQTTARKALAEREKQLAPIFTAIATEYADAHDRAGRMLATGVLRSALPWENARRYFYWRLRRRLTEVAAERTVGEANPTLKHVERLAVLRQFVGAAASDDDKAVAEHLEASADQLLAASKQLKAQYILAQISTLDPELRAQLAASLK

With `COc1ccc2c(-c3ccccc3)cc(SC(C)C(N)=O)nc2c1` (centres unmarked) [Formula III-i, 2-((7-methoxy-4-phenylquinolin-2-yl)thio)propanamide], in assay [1], the half-maximal inhibitory concentration (IC50) came to 8.8 µM.
In the assay with Diplodia maydis, `COC(=O)COc1ccc(-c2cc(-c3ccccc3)c3ccccc3n2)cc1` [Formula IIc-i, methyl 2-(4-(4-phenylquinolin-2-yl)phenoxy)acetate] showed an inhibition at 2 ppm of 12% and an inhibition at 10 ppm of 44%.
In the case of `COC(=O)Cc1ccc(-c2cc(-c3ccccc3)c3ccccc3n2)s1` [Formula IId-i, methyl 2-(5-(4-phenylquinolin-2-yl)thiophen-2-yl)acetate], the IC50 in assay [1] came to 12 µM. Also, in assay [2], 2 ppm produced 6% inhibition, the inhibition at 10 ppm came to 32% and testing at 50 ppm gave an inhibition of 79%. In the assay on Diplodia maydis, the inhibition at 2 ppm was 16% and the inhibition at 10 ppm was found to be 26%.
As for `COC(=O)Cc1ccc(-c2nc3ccccc3c(-c3ccccc3)c2Cl)s1` [Formula IId-ii, methyl 2-(5-(3-chloro-4-phenylquinolin-2-yl)thiophen-2-yl)acetate], the results for the inhibition at 2 ppm in the assay on Fusarium virguliforme and in the assay on Diplodia maydis were 44% and 26%, respectively. The inhibition at 10 ppm amounted to 34% with Fusarium virguliforme and 30% in the assay on Diplodia maydis.
Regarding `COc1ccc(-c2cc(-c3ccccc3)c3ccccc3n2)cc1` [Formula IV-i, 2-(4-methoxyphenyl)-4-phenylquinoline], the IC50 in assay [1] worked out at 21.2 µM. In addition, the inhibition at 2 ppm came to 35% in assay [2] and 21% with Diplodia maydis. For the same compound, the inhibition at 10 ppm in assay [2] was 22%; in the assay on Diplodia maydis, 44%.
`COc1ccc(-c2cc(-c3ccccc3)c3ccccc3n2)cc1OC` [Formula IV-ii, 2-(3,4-dimethoxyphenyl)-4-phenylquinoline]: the 50% inhibitory concentration (IC50) in assay [1] worked out at 7.82 µM. For the same compound, the inhibition at 2 ppm was found to be 34% in assay [2] and 26% with Diplodia maydis. The inhibition at 10 ppm was determined as 41% in assay [2] and 34% in the assay with Diplodia maydis.
In the case of `NC(=O)COc1ccc(-c2cc(-c3ccccc3)c3ccccc3n2)cc1` [Formula Ia-i, 2-(4-(4-phenylquinolin-2-yl)phenoxy)acetamide], in assay [1], the IC50 turned out to be 0.515 µM.
Turning to `O=C(O)COc1ccc(-c2cc(-c3ccccc3)c3ccccc3n2)cc1` [Formula Ia-ii, 2-(4-(4-phenylquinolin-2-yl)phenoxy)acetic acid], the IC50 in assay [1] turned out to be 0.165 µM.
With `COc1cccc2c(-c3ccccc3)cc(-c3ccc(OCC(N)=O)cc3)nc12` [Formula Ia-iii, 2-(4-(8-methoxy-4-phenylquinolin-2-yl)phenoxy)acetamide], the IC50 in assay [1] was 0.549 µM.
Consider `CCc1cccc2c(-c3ccccc3)cc(-c3ccc(OCC(N)=O)cc3)nc12` [Formula Ia-iv, 2-(4-(8-ethyl-4-phenylquinolin-2-yl)phenoxy)acetamide], for which the half-maximal inhibitory concentration (IC50) in assay [1] is 8.15 µM.
`O=C(COc1ccc(-c2cc(-c3ccccc3)c3cc(Cl)ccc3n2)cc1)NCCO` [Formula Ia-v, 2-(4-(6-chloro-4-phenylquinolin-2-yl)phenoxy)-N-(2-hydroxyethyl)acetamide]: the IC50 in assay [1] was 13 µM.
In the case of `NC(=O)Cc1ccc(-c2nc3ccccc3c(-c3ccccc3)c2Cl)s1` [Formula Ib-i, 2-(5-(3-chloro-4-phenylquinolin-2-yl)thiophen-2-yl)acetamide], the inhibition at 2 ppm in the assay with Fusarium virguliforme came to 43%; in assay [2], 44%. Besides, the inhibition at 10 ppm came out at 31% in the assay on Fusarium virguliforme and 51% in assay [2]. In addition, the IC50 in assay [1] came to 1.32 µM.
As to `NC(=O)Cc1ccc(-c2cc(-c3ccccc3)c3ccccc3n2)s1` [Formula Ib-iii, 2-(5-(4-phenylquinolin-2-yl)thiophen-2-yl)acetamide], the IC50 in assay [1] is 8.18 µM. Also, in assay [2], the inhibition at 2 ppm was determined as 31%, at 10 ppm the inhibition was 98% and at 50 ppm the inhibition was 81%. Besides, the inhibition at 3.7 µM in the assay with Saccharomyces cerevisiae (3.7 μM) stood at 0%. Also, the inhibition at 11.1 µM in the assay with Saccharomyces cerevisiae (11.1 μM) stood at 14%. In addition, the inhibition at 33.3 µM in the assay on Saccharomyces cerevisiae (33.3 μM) came out at 57%. For the same compound, in the assay with Saccharomyces cerevisiae (100 μM), the inhibition at 100 µM came to 99%.
As to `COc1cccc2c(-c3ccccc3)cc(-c3ccc(CC(N)=O)s3)nc12` [Formula Ib-v, 2-(5-(8-methoxy-4-phenylquinolin-2-yl)thiophen-2-yl)acetamide], the IC50 in assay [1] amounted to 4.21 µM.
Regarding `CCc1cccc2c(-c3ccccc3)cc(-c3ccc(CC(N)=O)s3)nc12` [Formula Ib-vi, 2-(5-(8-ethyl-4-phenylquinolin-2-yl)thiophen-2-yl)acetamide], the IC50 in assay [1] came out at 9.58 µM.
`CO[C@H]1CCCC[C@@H](c2ccccc2)OC(=O)[C@@H](C)[C@@]2(O)O[C@H]([C@@H](C)[C@H](O)[C@H]2OC)[C@@H](C)/C=C/[C@H]1OC` [Soraphen, reference compound]: in assay [1], the concentration for half-maximal inhibition (IC50) was found to be 0.0458 µM.

In general, IC50 refers to the midpoint of a concentration-inhibition curve. Broadly, the inhibition is the drop in the measured response relative to a control, in per cent.
